According to the METLIN SMRT retention time set (Domingo-Almenara et al. 2019):

assay: gradient 5% acetonitrile 3 min, to 50% in 2 min, to 85% in 15 min, held 3 min, 100 µL/min; details: column: Zorbax Extend-C18 2.1 x 50 mm; eluents: water / acetonitrile, 0.1% formic acid
Procedure, shortened: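 Data were gathered over 3 months by HPLC coupled to a quadrupole time-of-flight mass spectrometer, operated in positive and negative ionization mode. Mixtures of ~100 pure standards ran on a Zorbax Extend-C18 column (2.1 × 50 mm, 1.8 μm) at 100 μL/min, with water and acetonitrile each containing 0.1% formic acid and dead and dwell volumes of 40 μL and 900 μL. Retention time was read from adduct peaks picked by computer and checked manually.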

SMILES	RP-LC retention time [s]
CCOc1ccc(CNC(=O)C2CCCN(C(=O)c3[nH]c(C)c(C(=O)OC(C)C)c3C)C2)cc1 (stereo not drawn)	877
CCOc1ccc(NC(=O)N2CCC(n3cnc4cc(F)ccc4c3=O)CC2)cc1	797
Cc1cc(C(=O)CN2CCN(C)CC2)c(C)n1-c1cccc(C(F)(F)F)c1	588
Cc1cccn2cc(C(=O)NCc3ccc(F)cc3F)nc12	733
O=C(NC1CCCC1)NC1CCN(c2ccccc2)C1=O (stereo not drawn)	726
CC1CCN(c2ncc3c(n2)CCC(C(=O)NCCN2CCc4ccccc4C2)C3)CC1 (stereo not drawn)	654
Oc1ccc(-c2nc3ncccn3c2Nc2ccc(Cl)cc2)cc1	666
Cc1oc2ccn(Cc3ccccc3F)c(=O)c2c1C(=O)NC1CCCCC1	1160
Cc1cc2c(cc1S(=O)(=O)N1CCCC1C(=O)Nc1ccc(F)cc1)OCC(=O)N2 (stereo not drawn)	743
Cc1cc(N2CCC(NC(=O)Nc3ccc(F)cc3F)C2=O)ccc1F (stereo not drawn)	845
Cc1cnc(C(=O)N[C@@H]2CCC[C@@H]2C(=O)NC2CCCCCC2)cn1	735
Nc1ncnc2c1c(-c1ccc(Oc3ccccc3)cc1)cn2C1CCCC1	1030
O=C(CN1C(=O)NC2(CCCCC2)C1=O)NCc1ccccc1F	733
Cc1nc(CC(=O)NCc2ccc(C(F)(F)F)cc2)sc1C(=O)NCc1ccccc1	805
CCOc1cccc(CNc2cc(-n3nc(C)cc3C)ncn2)c1	987
Cc1ccc(-c2nc(-c3ccc(-n4cccn4)nc3)no2)cc1F	1370
O=c1ccc(-c2nc(-c3ccncc3)no2)nn1Cc1ccc(F)cc1Cl	904
CCc1nc(-c2ccc(OC3CCN(CCc4ccccc4)C3)cc2)no1 (stereo not drawn)	744
CCOc1ccccc1N1CCN(C(=O)c2sc3ncccc3c2-n2cccc2)CC1	1040
Cc1cc(NC(=O)C2CCN(C(=O)c3cnn(-c4ccccc4)n3)CC2)no1	847
Cc1cc(C(=O)N2CCC3(CC2)C(=O)N(C)c2ccccc23)n(C)n1	724
Cc1noc([C@@H]2CN(C(=O)c3occc3C)C[C@H]2COCC2CC2)n1	794

SMILES	RP-LC retention time [s]
Cc1cccc(NC(=O)Cn2c(=O)n(-c3cccc(C)c3)c(=O)c3c2cc(C)n3C)c1	888
Cn1cnc(S(=O)(=O)N2CCC(C(=O)NC3CCCCC3)CC2)c1	659
CN1CCN(CCNC(=O)c2nc3ccccn3c2-c2ccc(Cl)cc2)CC1	603
CCOC(=O)c1nc(NCc2cccc(OC)c2)c2ccccc2n1	754
O=c1ccc(-c2nc(-c3cccc(Br)c3)no2)cn1Cc1ccncc1	746
Cc1cccc(C)c1NC(=O)Cn1c(C)nc2onc(C)c2c1=O	845
Cc1ccc2[nH]cc(CCNC(=O)COc3ccc(Cl)cc3)c2c1	955
COc1cccc(CCNC(=O)CN2C(=O)CSc3cccn3-c3ccccc32)c1	900
Cc1nn(-c2ccc(-c3ccccc3)nn2)c(C)c1S(=O)(=O)N1CCCC(C)C1 (stereo not drawn)	1170
CCN1C(=O)C(C)(C(=O)Nc2ccc(OC)c(Cl)c2)Oc2cccnc21 (stereo not drawn)	895
O=C(Cc1c[nH]c2ccccc12)NCCc1c[nH]c2ccc(Cl)cc12	857
COc1ccc(-c2nocc2CCC(=O)O)cc1	712
CN(C)C(=O)c1n[nH]c2c1CN(C(=O)c1ccc(Br)cc1)CC2	634
CCN1c2ccccc2C(=O)NC12CCN(C(=O)NCCc1ccccc1)CC2	773
Cn1cc(C(=O)Nc2ccc3c(c2)OCCO3)c2cccnc21	727
O=C(NCc1ccc(C(F)(F)F)cc1)C1CCCN(c2nccnc2Oc2ccccc2)C1 (stereo not drawn)	1040
COc1ccc(C(=O)NC2CCCCCC2)cc1CN1CC(=O)N2CCCC2C1=O (stereo not drawn)	702
Cc1nn(-c2ccc(-c3ccccc3)nn2)c(C)c1S(=O)(=O)N1CCOCC1	887
Cc1noc2ncn(CC(=O)Nc3ccccc3Br)c(=O)c12	761
CCc1ccc(C2=Nc3cccnc3N(CC(=O)Nc3ccc4c(c3)OCCO4)C(=O)C2)cc1	1020
COc1cccc(N2CCN(C(=O)C3CCN(S(=O)(=O)c4cn(C(C)C)cn4)CC3)CC2)c1	764
CCOC(=O)N1CCN(C(=O)Cc2c(C)nn(-c3nc(-c4ccc(Cl)cc4)cs3)c2C)CC1	1110

SMILES	RP-LC retention time [s]
CCc1nc(-c2nnn(-c3ccccc3)c2C)no1	863
COc1ccc(CNC(=O)N2C[C@@H]3CN(S(=O)(=O)c4cccc(F)c4)C[C@H](C2)O3)cc1	771
O=C(C1CCN(c2nccnc2Sc2ccccc2)CC1)N1CCOCC1	798
C#C[C@]1(O)CCC2C3CCC4=CC(=O)CCC4C3C(=C)CC21CC (stereo partly drawn)	991
Cc1ccc(C2=NC3(CCN(C(=O)Nc4ccc5c(c4)OCO5)CC3)NC2=O)cc1	714
CC(C)(C)c1csc(-c2csc(S(=O)(=O)Nc3ccc(F)c(F)c3)c2)n1	1260
Cc1nc(-n2cccc2)sc1C(=O)Nc1ccc(-c2cn3c(n2)SCC3)cc1	627
Fc1ccc(Nc2nc(N3CCOCC3)nc3c2cnn3-c2ccccc2)cc1	1170
CCOC(=O)c1c(S(=O)(=O)N2CCC(C(=O)Nc3ccc(CC)cc3)CC2)c(C)n(CC)c1C	984
CC1(C)SC(C)(C)N(C=O)C1C(=O)O (stereo not drawn)	708
CCCNC(=O)CCc1cc2cc(OC)ccc2[nH]c1=O	634
c1ccc(N2CCN(Cc3nc(-c4ccc(N5CCCCCC5)nc4)no3)CC2)nc1	593
Cc1cc(F)ccc1N1C(=O)CN(S(=O)(=O)c2ccccc2)CC1(C)C(=O)NC1CCCC1 (stereo not drawn)	928
Cc1ccccc1-c1nnc(CSc2nnc(NC(=O)CC3CCCCC3)s2)o1	1080
Cc1noc(C)c1C1CCCN1C(=O)c1cc(-c2ccccc2F)no1 (stereo not drawn)	859
COc1ccccc1-n1c(SCC(=O)Nc2nnc(C)s2)nc2c(c1=O)SCC2	645
CSc1cccc(N2C(=O)C3N=NN(Cc4nc(-c5ccc(C)c(C)c5)no4)C3C2=O)c1 (stereo not drawn)	1100
C=CCNC(=O)c1cn(-c2cc(-c3nc(C4CC4)no3)ccn2)cn1	800
CCOC(=O)C1CCN(C(=O)c2ccc3c(c2)CCCN3S(C)(=O)=O)CC1	765
O=C(OCc1cc(-c2cc3ccccc3o2)on1)c1ccccc1S(=O)(=O)C(F)F	1090
O=S(=O)(c1cc(-c2nnc(C3CC3)o2)co1)N1CCC(Cc2ccccc2)CC1	1080
Cn1c(C(=O)N2CCN(c3cccc(Cl)c3)CC2)cc2c(=O)oc3ccccc3c21	1030

SMILES	RP-LC retention time [s]
Cn1cnnc1C1CCCCN1S(=O)(=O)c1cccs1 (stereo not drawn)	639
CC(=O)Nc1ccc(Br)cc1C(=O)c1ccccc1	840
O=C(Cn1cccc1-c1nc(-c2ccc(Cl)cc2)cs1)NCCCN1CCCC1	826
C[C@H]1CC[C@@H]2[C@@H](C)[C@H]3[C@H](C[C@H]4[C@@H]5CC[C@H]6C[C@@H](O)CC[C@]6(C)[C@H]5CC[C@]34C)N2C1	763
CC(=O)N1c2ccc(S(=O)(=O)N3CCCCC3)cc2CC1C(=O)NCCN1CCCCC1 (stereo not drawn)	626
O=C(NCc1ccc(F)cc1)N1CCC(OC2CCN(Cc3ccccc3)CC2)CC1	658
COc1ccc(NC(=O)Cn2cnc3nc4c(cc3c2=O)CCCC4)cc1	695
Fc1ccc(CN2CCO[C@@H](COc3ccccn3)[C@@H]2c2ccccc2)c(F)c1	894
Cc1ccc(Cl)cc1N(C)C(=O)Cn1ccc2c(=O)n(C)c(=O)n(C)c21	738
CCc1nc(-c2csc(S(=O)(=O)N3CCCC(C(=O)Nc4cccc(C)n4)C3)c2)no1 (stereo not drawn)	869
Cc1ccc(-c2cc3c(N4CCCC(C(=O)NCc5ccc6c(c5)OCO6)C4)nccn3n2)c(C)c1 (stereo not drawn)	938
CCn1cc(-c2nc(C(=O)NCc3cccc(C)c3)cs2)c2cccnc21	1060
COC(=O)c1cc(S(=O)(=O)N2CCCC2C(=O)Nc2ccc(C)cc2Br)cn1C (stereo not drawn)	1000
Cc1cccc(N2CCN(S(=O)(=O)c3cc(-c4nnc(C5CC5)o4)co3)CC2)c1C	1130
Cc1ccc(-c2noc(-c3cccc(S(=O)(=O)N4CCCCC4)c3)n2)cc1	1340
CC(C)CN1C(=O)c2cccn2CC1C(=O)NC1CCCCCC1 (stereo not drawn)	812
COc1cccc(NC(=O)C2CCCN(c3nnc4ccc(Cl)cn34)C2)c1 (stereo not drawn)	774
Cc1[nH]c2ccc(-c3nnc(SCC(=O)NC(C)c4nc5ccccc5[nH]4)o3)cc2c1C (stereo not drawn)	667
Cc1nnc(-c2coc(S(=O)(=O)N3CCC(Cc4ccccc4)CC3)c2)o1	1010
COc1ccc(Cl)cc1C(=O)NC1(c2nc(C)no2)CCCCC1	1010
CC1(C(=O)NC2CCN(c3ccc(=O)n(CCOc4ccccc4)n3)C2)CCCCC1 (stereo not drawn)	906
CCC(c1cccs1)N1C(=O)[C@H]2CN(Cc3cccnc3)C[C@H]2C1=O (stereo partly drawn)	653
